Experimental data published in patent US8697739B2, “Bicyclic acetyl-CoA carboxylase inhibitors and uses thereof” (Novartis AG, priority 2010, dated 2014).

Target: T1, human acetyl-CoA carboxylase 2 (ACC2) (Homo sapiens, UniProt O00763)
T1 construct: The cDNA encoding amino acids 144 to 2458 of human acetyl-CoA carboxylase 2; made in house; host or cells: Sf9 insect cells (baculovirus, pFastBac1)
Test: Acetyl-CoA carboxylase enzyme assay (malonyl-CoA formation by LC/MS/MS)
Assay type: biochemical
Settings: recombinant human ACC2 (aa 144-2458); read-out: IC50 ACC2
In short: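 Malonyl-CoA formation was read by LC/MS/MS MRM against a [13C3]-malonyl-CoA internal standard, after acetic acid quench. The enzyme was baculovirus/Sf9-expressed human ACC2 residues 144–2458, given 15 minutes room-temperature compound preincubation in HEPES pH 7.5 buffer with MgCl2, citrate and DTT. Substrate solution held 50 μM acetyl-CoA, 120 μM ATP and 2 mM KHCO3.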

T1 sequence (O00763 144-2458): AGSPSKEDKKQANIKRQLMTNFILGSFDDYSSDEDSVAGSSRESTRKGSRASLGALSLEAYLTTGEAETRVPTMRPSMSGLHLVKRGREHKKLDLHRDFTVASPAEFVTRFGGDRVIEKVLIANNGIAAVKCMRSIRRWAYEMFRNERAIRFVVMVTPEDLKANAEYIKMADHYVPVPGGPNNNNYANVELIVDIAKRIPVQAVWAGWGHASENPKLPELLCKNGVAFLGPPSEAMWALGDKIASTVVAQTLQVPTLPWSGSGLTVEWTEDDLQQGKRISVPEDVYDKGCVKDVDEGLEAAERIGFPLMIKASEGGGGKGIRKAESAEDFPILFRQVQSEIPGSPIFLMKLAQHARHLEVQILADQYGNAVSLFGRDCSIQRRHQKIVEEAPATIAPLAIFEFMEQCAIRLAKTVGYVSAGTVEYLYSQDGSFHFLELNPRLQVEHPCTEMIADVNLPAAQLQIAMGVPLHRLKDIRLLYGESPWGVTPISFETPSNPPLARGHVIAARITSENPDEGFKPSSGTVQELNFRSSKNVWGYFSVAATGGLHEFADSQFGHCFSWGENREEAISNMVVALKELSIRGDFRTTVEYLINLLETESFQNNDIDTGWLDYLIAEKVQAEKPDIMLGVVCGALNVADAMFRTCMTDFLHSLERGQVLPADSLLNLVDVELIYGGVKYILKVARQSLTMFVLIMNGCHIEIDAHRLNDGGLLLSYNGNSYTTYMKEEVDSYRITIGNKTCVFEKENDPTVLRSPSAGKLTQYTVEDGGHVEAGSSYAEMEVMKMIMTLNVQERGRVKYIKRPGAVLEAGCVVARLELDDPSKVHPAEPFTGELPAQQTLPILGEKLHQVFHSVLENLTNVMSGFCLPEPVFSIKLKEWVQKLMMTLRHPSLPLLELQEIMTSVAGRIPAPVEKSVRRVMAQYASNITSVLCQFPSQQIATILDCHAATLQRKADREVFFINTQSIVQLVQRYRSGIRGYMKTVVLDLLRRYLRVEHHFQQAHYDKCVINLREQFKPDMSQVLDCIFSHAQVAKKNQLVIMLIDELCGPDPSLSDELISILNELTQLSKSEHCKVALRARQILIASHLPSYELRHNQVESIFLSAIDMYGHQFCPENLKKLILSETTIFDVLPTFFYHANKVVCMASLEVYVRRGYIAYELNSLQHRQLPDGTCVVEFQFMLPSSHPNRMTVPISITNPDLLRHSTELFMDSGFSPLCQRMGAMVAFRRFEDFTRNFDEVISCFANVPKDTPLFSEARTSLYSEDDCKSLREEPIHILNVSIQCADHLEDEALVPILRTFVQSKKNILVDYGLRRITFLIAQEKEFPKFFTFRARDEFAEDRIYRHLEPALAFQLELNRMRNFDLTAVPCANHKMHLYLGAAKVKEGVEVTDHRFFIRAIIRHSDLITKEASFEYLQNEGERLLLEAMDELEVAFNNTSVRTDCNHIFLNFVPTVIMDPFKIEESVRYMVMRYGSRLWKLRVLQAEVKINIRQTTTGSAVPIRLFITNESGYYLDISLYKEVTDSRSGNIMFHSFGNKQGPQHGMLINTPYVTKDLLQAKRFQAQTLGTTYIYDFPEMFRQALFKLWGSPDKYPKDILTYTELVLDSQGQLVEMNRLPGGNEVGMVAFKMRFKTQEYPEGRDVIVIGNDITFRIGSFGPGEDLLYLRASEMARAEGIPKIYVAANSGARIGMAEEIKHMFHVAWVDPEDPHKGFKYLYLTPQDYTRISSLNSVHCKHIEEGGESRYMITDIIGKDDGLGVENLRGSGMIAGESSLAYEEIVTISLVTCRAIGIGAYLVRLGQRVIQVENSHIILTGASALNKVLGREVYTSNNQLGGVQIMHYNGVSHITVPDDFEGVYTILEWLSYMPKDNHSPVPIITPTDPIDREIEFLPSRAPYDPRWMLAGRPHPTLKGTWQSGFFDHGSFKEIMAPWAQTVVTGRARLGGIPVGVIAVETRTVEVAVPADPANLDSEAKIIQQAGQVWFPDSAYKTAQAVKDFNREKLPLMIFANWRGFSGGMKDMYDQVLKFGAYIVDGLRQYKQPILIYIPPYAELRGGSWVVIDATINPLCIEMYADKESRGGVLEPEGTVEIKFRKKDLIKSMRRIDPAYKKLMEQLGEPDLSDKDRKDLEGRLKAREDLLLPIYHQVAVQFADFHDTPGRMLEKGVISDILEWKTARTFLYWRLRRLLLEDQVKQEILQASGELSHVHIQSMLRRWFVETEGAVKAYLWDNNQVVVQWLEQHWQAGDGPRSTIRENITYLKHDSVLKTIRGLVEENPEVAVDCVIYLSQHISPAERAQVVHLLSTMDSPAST

SMILES | IC50 [nM]
Cn1c(-c2ccccc2)cc2cc(S(=O)(=O)N[C@H]3CC[C@H](C(=O)N4CCN[C@H](C(F)(F)F)C4)CC3)ccc21 [Example 86, 1-methyl-2-phenyl-N-((1S,4r)-4-((S)-3-(trifluoromethyl)piperazine-1-carbonyl)cyclohexyl)-1H-indole-5-sulfonamide] | 75
Cn1c(-c2ccccc2)cc2cc(S(=O)(=O)N[C@H]3CC[C@H](C(=O)N4CCN[C@@H](C(F)(F)F)C4)CC3)ccc21 [Example 87, 1-methyl-2-phenyl-N-((1R,4r)-4-((R)-3-(trifluoromethyl)piperazine-1-carbonyl)cyclohexyl)-1H-indole-5-sulfonamide] | 100
C[C@@H](NC(=O)[C@H]1CC[C@H](NS(=O)(=O)c2ccc3c(c2)c(C#N)cn3C)CC1)c1ccc(F)cc1 [Example 88, (1r,4R)-4-(3-cyano-1-methyl-1H-indole-5-sulfonamido)-N-((R)-1-(4-fluorophenyl)ethyl)cyclohexanecarboxamide] | 50
Cn1cc(C#N)c2cc(S(=O)(=O)N[C@H]3CC[C@H](C(=O)N[C@@H](c4ccccc4)C(C)(C)O)CC3)ccc21 [Example 89, (1r,4S)-4-(3-cyano-1-methyl-1H-indole-5-sulfonamido)-N-((S)-2-hydroxy-2-methyl-1-phenylpropyl)cyclohexanecarboxamide] | 20
Cn1c(-c2ccccc2)cc2cc(S(=O)(=O)N[C@H]3CC[C@H](C(=O)N4CC(C(=O)O)CCC4c4ccccc4)CC3)ccc21 (stereo partly drawn) [Example 90, 1-((1r,4r)-4-(1-methyl-2-phenyl-1H-indole-5-sulfonamido)cyclohexanecarbonyl)-6-phenylpiperidine-3-carboxylic acid] | 260
Cn1c(-c2ccccc2)cc2cc(S(=O)(=O)N[C@H]3CC[C@H](C(=O)N4CC(C(=O)O)CCC4c4ccccc4)CC3)ccc21 (stereo partly drawn) [Example 91, 1-((1r,4r)-4-(1-methyl-2-phenyl-1H-indole-5-sulfonamido)cyclohexanecarbonyl)-6-phenylpiperidine-3-carboxylic acid] | 30
Cn1c(-c2ccccc2)cc2cc(S(=O)(=O)N[C@H]3CC[C@H](C(=O)N4CC(C(=O)O)CCC4c4ccccc4)CC3)ccc21 (stereo partly drawn) [Example 92, 1-((1r,4r)-4-(1-methyl-2-phenyl-1H-indole-5-sulfonamido)cyclohexanecarbonyl)-6-phenylpiperidine-3-carboxylic acid] | < 10
Cn1c(-c2ccccc2)cc2cc(S(=O)(=O)N[C@H]3CC[C@H](C(=O)N4CC(C(=O)O)CCC4c4ccccc4)CC3)ccc21 (stereo partly drawn) [Example 93, 1-((1r,4r)-4-(1-methyl-2-phenyl-1H-indole-5-sulfonamido)cyclohexanecarbonyl)-6-phenylpiperidine-3-carboxylic acid] | 545
Cn1c(-c2ccccc2)cc2cc(S(=O)(=O)N[C@H]3CC[C@H](C(=O)N[C@H](CC(=O)OC(C)(C)C)c4ccccc4)CC3)ccc21 [Example 94, (R)-tert-butyl 3-((1r,4R)-4-(1-methyl-2-phenyl-1H-indole-5-sulfonamido)cyclohexanecarboxamido)-3-phenylpropanoate] | 75
Cn1c(-c2ccccc2)cc2cc(S(=O)(=O)N[C@H]3CC[C@H](C(=O)N[C@H](CC(=O)O)c4ccccc4)CC3)ccc21 [Example 95, (R)-3-((1r,4R)-4-(1-methyl-2-phenyl-1H-indole-5-sulfonamido)cyclohexanecarboxamido)-3-phenylpropanoic acid] | 30
CC(C)(O)[C@@H](NC(=O)[C@H]1CC[C@H](NS(=O)(=O)c2ccc3ccccc3c2)CC1)c1ccccc1 [Example 96, (1r,4S)-N-((S)-2-hydroxy-2-methyl-1-phenylpropyl)-4-(naphthalene-2-sulfonamido)cyclohexanecarboxamide] | 10
Cn1c(-c2ccccc2)cc2cc(S(=O)(=O)N[C@H]3CC[C@H](C(=O)N[C@@H](c4ccccc4)C(C)(C)C(=O)O)CC3)ccc21 [Example 97, (S)-2,2-dimethyl-3-((1r,4S)-4-(1-methyl-2-phenyl-1H-indole-5-sulfonamido)cyclohexanecarboxamido)-3-phenylpropanoic acid] | < 10
COC(=O)[C@H]1CC[C@H](NS(=O)(=O)c2ccc3nc(-c4ccccc4)[nH]c3c2)CC1 [Example 98, (1r,4r)-methyl 4-(2-phenyl-1H-benzo[d]imidazole-6-sulfonamido)cyclohexanecarboxylate] | 4300

The next lines start with the values.

IC50 [nM] | SMILES
494 | O=C(OCc1ccccc1)[C@H]1CC[C@H](NS(=O)(=O)c2ccc3nc(-c4ccccc4)[nH]c3c2)CC1 [Example 99, (1r,4r)-benzyl 4-(2-phenyl-1H-benzo[d]imidazole-6-sulfonamido)cyclohexanecarboxylate]
760 | COc1ccc(-c2nc3ccc(S(=O)(=O)N[C@H]4CC[C@H](C(=O)OCc5ccccc5)CC4)cc3[nH]2)cc1 [Example 100, (1r,4r)-benzyl 4-(2-(4-methoxyphenyl)-1H-benzo[d]imidazole-6-sulfonamido)cyclohexanecarboxylate]
1790 | COC(=O)c1ccc(COC(=O)[C@H]2CC[C@H](NS(=O)(=O)c3ccc4nc(-c5ccccc5)[nH]c4c3)CC2)cc1 [Example 101, methyl 4-(((1r,4r)-4-(2-phenyl-1H-benzo[d]imidazole-6-sulfonamido)cyclohexanecarbonyloxy)methyl)benzoate]
45 | C[C@@H](NC(=O)[C@H]1CC[C@H](NS(=O)(=O)c2ccc3[nH]c(-c4ccccc4)cc3c2)CC1)c1ccc(F)cc1 [Example 102, (1r,4R)-N-((R)-1-(4-fluorophenyl)ethyl)-4-(2-phenyl-1H-indole-5-sulfonamido)cyclohexanecarboxamide]
38 | CC(C)(C)OC(=O)N1CCN(c2ccc(-c3nc4cc(S(=O)(=O)N[C@H]5CC[C@H](C(=O)N6CCOCC6)CC5)ccc4[nH]3)cc2)CC1 [Example 103, tert-butyl 4-(4-(5-(N-((1r,4r)-4-(morpholine-4-carbonyl)cyclohexyl)sulfamoyl)-1H-benzo[d]imidazol-2-yl)phenyl)piperazine-1-carboxylate]
20 | O=C([C@H]1CC[C@H](NS(=O)(=O)c2ccc3[nH]c(-c4ccc(N5CCNCC5)cc4)nc3c2)CC1)N1CCOCC1 [Example 104, N-((1r,4r)-4-(morpholine-4-carbonyl)cyclohexyl)-2-(4-(piperazin-1-yl)phenyl)-1H-benzo[d]imidazole-5-sulfonamide]
252 | C[C@@H](NC(=O)[C@H]1CC[C@H](NS(=O)(=O)c2cnc3ccccc3c2)CC1)c1ccc(F)cc1 [Example 105, (1r,4R)-N-((R)-1-(4-fluorophenyl)ethyl)-4-(quinoline-3-sulfonamido)cyclohexanecarboxamide]
388 | CC(=O)N1CCc2cc(S(=O)(=O)N[C@H]3CC[C@H](C(=O)N[C@H](C)c4ccc(F)cc4)CC3)ccc21 [Example 106, (1r,4R)-4-(1-acetylindoline-5-sulfonamido)-N-((R)-1-(4-fluorophenyl)ethyl)cyclohexanecarboxamide]
205 | C[C@@H](NC(=O)[C@H]1CC[C@H](NS(=O)(=O)c2ccc3[nH]cnc3c2)CC1)c1ccc(F)cc1 [Example 107, (1r,4R)-4-(1H-benzo[d]imidazole-5-sulfonamido)-N-((R)-1-(4-fluorophenyl)ethyl)cyclohexanecarboxamide]
1260 | C[C@@H](NC(=O)[C@H]1CC[C@H](NS(=O)(=O)c2ccc3[nH]c([C@@H]4CNCCN4)nc3c2)CC1)c1ccc(F)cc1 [Example 108, (1r,4R)-N-((R)-1-(4-fluorophenyl)ethyl)-4-(2-((S)-piperazin-2-yl)-1H-benzo[d]imidazole-5-sulfonamido)cyclohexanecarboxamide]
321 | C[C@@H](NC(=O)[C@H]1CC[C@H](NS(=O)(=O)c2ccc3c(c2)ncn3C)CC1)c1ccc(F)cc1 [Example 109, (1r,4R)-N-((R)-1-(4-fluorophenyl)ethyl)-4-(1-methyl-1H-benzo[d]imidazole-5-sulfonamido)cyclohexanecarboxamide]
290 | C[C@@H](NC(=O)[C@H]1CC[C@H](NS(=O)(=O)c2ccc3c(c2)CCC(=O)N3)CC1)c1ccc(F)cc1 [Example 110, (1r,4R)-N-((R)-1-(4-fluorophenyl)ethyl)-4-(2-oxo-1,2,3,4-tetrahydroquinoline-6-sulfonamido)cyclohexanecarboxamide]
139 | C[C@@H](NC(=O)[C@H]1CC[C@H](NS(=O)(=O)c2ccc3ncccc3c2)CC1)c1ccc(F)cc1 [Example 111, (1r,4R)-N-((R)-1-(4-fluorophenyl)ethyl)-4-(quinoline-6-sulfonamido)cyclohexanecarboxamide]
344 | C[C@@H](NC(=O)[C@H]1CC[C@H](NS(=O)(=O)c2ccc3c(c2)NC(=O)CO3)CC1)c1ccc(F)cc1 [Example 112, (1r,4R)-N-((R)-1-(4-fluorophenyl)ethyl)-4-(3-oxo-3,4-dihydro-2H-benzo[b][1,4]oxazine-6-sulfonamido)cyclohexanecarboxamide]
212 | C[C@@H](NC(=O)[C@H]1CC[C@H](NS(=O)(=O)c2ccc3ncsc3c2)CC1)c1ccc(F)cc1 [Example 113, (1r,4R)-4-(benzo[d]thiazole-6-surfonamido)-N-((R)-1-(4-fluorophenyl)ethyl)cyclohexanecarboxamide]
296 | C[C@@H](NC(=O)[C@H]1CC[C@H](NS(=O)(=O)c2ccc3[nH]c([C@@H]4CCCO4)nc3c2)CC1)c1ccc(F)cc1 [Example 114, (1r,4R)-N-((R)-1-(4-fluorophenyl)ethyl)-4-(2-((S)-tetrahydrofuran-2-yl)-1H-benzo[d]imidazole-5-sulfonamido)cyclohexanecarboxamide]
29100 | C[C@@H](NC(=O)[C@H]1CC[C@H](NC(=O)c2ccc3cc(-c4ccccc4)[nH]c3c2)CC1)c1ccc(F)cc1 [Example 115, N-((1R,4r)-4-((R)-1-(4-fluorophenyl)ethylcarbamoyl)cyclohexyl)-2-phenyl-1H-indole-6-carboxamide]
